Reference: publication PMC11350758, “Development of Xanthoangelol-Derived Compounds with Membrane-Disrupting Effects against Gram-Positive Bacteria” (Antibiotics, 2024)
Converted amounts (≈) assume the structure as drawn.

Experiments:
[1] = tested on: S. aureus ATCC43300 biofilm formation; conditions: 4 μg/mL
Procedure: Bacterial biofilms created by the aggregation of bacteria is considered as one of the main reasons for the development of drug resistance. […] Subsequently, we further assessed the efficiency of 9h to eradicate the preformed biofilm. Matured S. aureus biofilm (grown for 24 h) was treated with compound 9h, and the rate of biofilm disruption was then assessed by the crystal violet staining assay.
Biofilm inhibition assay: S. aureus ATCC43300 was cultured (37 °C, 200 rpm) in MHB broth for 5 h and diluted to 1 × 10^6 CFU/mL. […] The planktonic supernatant cells were discarded and washed with PBS three times. Then, methanol (150 µL) was added to each well for 30 min. After discarding methanol, 0.1% crystal violet solution (150 µL) was added, and biofilms were stained for 15 min. Next, crystal violet solution was removed and washed with PBS three times. Finally, ethanol (150 µL) was pipetted into the wells, and the OD values were measured at 575 nm. The biofilm inhibition (%) = (ODcompound − ODblank)/(ODpositive control − ODblank) × 100%.

[2] = tested on: Gram-positive strains tested; test: MIC, summary over the Gram-positive strains tested; format: cell-based; conditions: read-out: MICs against the Gram-positive strains tested, range over the Gram-positive panel
Procedure: (§1) All target derivatives were assessed for their in vitro antibacterial activities using a broth microdilution assay to test their minimum inhibitory concentrations (MICs) against six Gram-positive strains (S. aureus ATCC31007, S. aureus ATCC25923, S. aureus ATCC43300, E. faecalis ATCC29212, B. subtilis ATCC9372, and S. epidermidis ATCC12228) and four Gram-negative strains (A. baumannii ATCC19606, K. pneumonia ATCC10031, E. coli ATCC25922, and P. aeruginosa ATCC27853). These compounds were also evaluated for their hemolytic activities and membrane selectivity by determining their HC50 (the concentration required to lyse 50% of red blood cells) and SI (HC50/MICs) values, respectively, and vancomycin was used as the positive drug.
(§2) MICs of the derivatives were determined by the micro broth dilution method according to the American Clinical and Laboratory Standards Institute (CLSI) standards. Briefly, 2-fold serial dilutions of target compounds were prepared in 96-well plates containing TSB broth. An equal volume of bacterial suspension (10^6 CFU/mL) was then pipetted into each well, and the mixture was incubated at 37 °C for 24 h. […] All biological experiments were repeated three times.

[3] = tested on: Staphylococcus aureus ATCC43300, methicillin-resistant strain; test: microbe, parasite or virus in culture; format: cell-based; conditions: ATCC 43300 / MRSA; Staphylococcus aureus ATCC43300 (MRSA); read-out: MIC S. a 43300
Procedure: as §1, §2

[4] = tested on: red blood cells; test: Hemolysis assay; format: cell-based, Sheep; conditions: concentration required to lyse 50% of red blood cells; 37 °C, 1 h
Procedure: as §1
To further detect the hemolytic toxicity and therapeutic potential of these derivatives, we proceeded to examine the hemolytic activities and membrane selectivity of these derivatives. The HC50 value was defined as the concentration needed for a compound to lyse 50% of red blood cells, and it is often used to evaluate the hemolytic toxicity to eukaryotic cells. […] The selectivity index (SI) was calculated by HC50/MICs of S. aureus ATCC43300 and was used to assess the potency and safety of the compounds. […] Thus, compound 9h was selected as a representative molecule for the in-depth in vitro and in vivo studies.
Sheep blood was used to isolate red blood cells (RBCs), which were then resuspended in 1× PBS (5%). The compounds were dissolved in PBS to give an initial concentration of 5.12 mg/mL, compound solution (100 μL) was added to the first well of a 96-well plate, two-fold serial dilutions of compounds were prepared in 96-well plates, and then 150 μL of 5% RBC suspension was added to each well. This was followed by incubation at 37 °C for 1 h. After incubation, the plate was centrifuged (3500 rpm, 5 min), and 100 μL of supernatant solution from each well was carefully pipetted into a new plate. The absorbance values were measured at 540 nm. Erythrocyte hemolysis rate = (Absorbancecompound – Absorbance negative control)/(Absorbance1% Triton X-100 − Absorbance negative control) × 100%. All biological experiments were repeated three times.

[5] = tested on: Acinetobacter baumannii ATCC19606; test: MIC, broth microdilution; format: cell-based; conditions: Acinetobacter baumannii ATCC19606; read-out: MIC A. b. 19606
Procedure: as §1, §2

[6] = tested on: Staphylococcus aureus ATCC31007, penicillin-resistant strain; test: MIC, broth microdilution; format: cell-based; conditions: Staphylococcus aureus ATCC31007; read-out: MIC S. a. 31007
Procedure: as §1, §2

[7] = tested on: Staphylococcus aureus ATCC25923, erythromycin-susceptible strain; test: MIC, broth microdilution; format: cell-based; conditions: Staphylococcus aureus ATCC25923; read-out: MIC S. a. 25923
Procedure: as §1, §2

[8] = tested on: Enterococcus faecalis ATCC29212, vancomycin-susceptible strain; test: MIC, broth microdilution; format: cell-based; conditions: Enterococcus faecalis ATCC29212; read-out: MIC E. f. 29212
Procedure: as §1, §2

[9] = tested on: Escherichia coli ATCC25922, penicillin-susceptible strain; test: MIC, broth microdilution; format: cell-based; conditions: Escherichia coli ATCC25922; read-out: MIC E. c. 25922
Procedure: as §1, §2

[10] = tested on: Staphylococcus epidermidis ATCC12228, erythromycin-susceptible strain; test: MIC, broth microdilution; format: cell-based; conditions: Staphylococcus epidermidis ATCC12228; read-out: MIC S. e. 12228
Procedure: as §1, §2

[11] = tested on: Klebsiella pneumonia ATCC10031; test: MIC, broth microdilution; format: cell-based; conditions: Klebsiella pneumoniae; Klebsiella pneumonia ATCC10031; read-out: MIC K. p. 10031
Procedure: as §1, §2

[12] = tested on: Pseudomonas aeruginosa ATCC27853, penicillin-susceptible strain; test: MIC, broth microdilution; format: cell-based; conditions: Pseudomonas aeruginosa ATCC27853; read-out: MIC P. a. 27853
Procedure: as §1, §2

[13] = tested on: Bacillus subtilis ATCC9372, penicillin-susceptible strain; test: MIC, broth microdilution; format: cell-based; conditions: Bacillus subtilis ATCC9372; read-out: MIC B. s. 9372
Procedure: as §1, §2

[14] = tested on: Enterococcus faecium ATCC51559, vancomycin-resistant strain; test: MIC, broth microdilution; format: cell-based; conditions: Enterococcus faecium ATCC51559, vancomycin-resistant; read-out: MIC E. f. 51559
Procedure: as §2

[15] = tested on: Enterococcus faecalis ATCC51299, vancomycin-resistant strain; test: MIC, broth microdilution; format: cell-based; conditions: Enterococcus faecalis ATCC51299, vancomycin-resistant; read-out: MIC E. f. 51299
Procedure: as §2

[16] = tested on: S. aureus; test: MIC, summary over the S. aureus strains tested; format: cell-based; conditions: Staphylococcus aureus; over the three S. aureus strains tested; read-out: MICs against S. aureus
Procedure: as §1, §2

Structure (SMILES)	inhibition of S. aureus biofilm formation [1]	MIC [2]	MIC [3]	HC50 [4]	MIC [5]	MIC [6]	MIC [7]	MIC [8]	MIC [9]	MIC [10]	MIC [11]	MIC [12]	MIC [13]	MIC [14]	MIC [15]	MIC [16]
CC[C@H](C)[C@H](NC(=O)[C@H](CCCCN)NC(=O)[C@H](CCC(=O)O)NC(=O)[C@H](CCCCN)NC(=O)[C@H](CO)NC(=O)[C@H](CCCCN)NC(=O)[C@H](CCCNC(=N)N)NC(=O)[C@H](Cc1ccccc1)NC(=O)[C@H](Cc1ccccc1)NC(=O)[C@H](CC(=O)O)NC(=O)CNC(=O)[C@H](CC(C)C)NC(=O)[C@@H](N)CC(C)C)C(=O)NCC(=O)N[C@@H](CCCCN)C(=O)N[C@@H](CCC(=O)O)C(=O)N[C@@H](Cc1ccccc1)C(=O)N[C@@H](CCCCN)C(=O)N[C@@H](CCCNC(=N)N)C(=O)N[C@H](C(=O)N[C@H](C(=O)N[C@@H](CCC(N)=O)C(=O)N[C@@H](CCCNC(=N)N)C(=O)N[C@H](C(=O)N[C@@H](CCCCN)C(=O)N[C@@H](CC(=O)O)C(=O)N[C@@H](Cc1ccccc1)C(=O)N[C@@H](CC(C)C)C(=O)N[C@@H](CCCNC(=N)N)C(=O)N[C@@H](CC(N)=O)C(=O)N[C@@H](CC(C)C)C(=O)N[C@H](C(=O)N1CCC[C@H]1C(=O)N[C@@H](CCCNC(=N)N)C(=O)N[C@H](C(=O)N[C@@H](CCC(=O)O)C(=O)N[C@@H](CO)C(=O)O)[C@@H](C)O)C(C)C)[C@@H](C)CC)C(C)C)[C@@H](C)CC [LL-37, reference compound]	55.41%	–	–	–	–	–	–	–	–	–	–	–	–	–	–	–
CC(=O)c1c(OCCCN2CC(C)OC(C)C2)c2c(c3c1OC(C)(CCC=C(C)C)C=C3)OC(C)(CCC=C(C)C)C=C2 (stereo not shown) [Compound 9d, 1-(5-(3-(2,6-Dimethylmorpholino)propoxy)-2,8-dimethyl-2,8-bis(4-methylpent-3-en-1-yl)-2H,8H-pyrano[2,3-f]chromen-6-yl)ethan-1-one]	–	> 64 µg/mL	> 128 µg/mL	>1280 µg/mL	> 128 µg/mL	> 128 µg/mL	> 128 µg/mL	> 128 µg/mL	> 128 µg/mL	> 128 µg/mL	> 128 µg/mL	> 128 µg/mL	> 128 µg/mL	> 128 µg/mL	> 128 µg/mL	–
CC(=O)c1c(OCCCSC(=N)N)c2c(c3c1OC(C)(CCC=C(C)C)C=C3)OC(C)(CCC=C(C)C)C=C2 (stereo not shown) [Compound 9e, 2-(3-((6-Acetyl-2,8-dimethyl-2,8-bis(4-methylpent-3-en-1-yl)-2H,8H-pyrano[2,3-f]chromen-5-yl)oxy)propyl)isothiouronium]	–	> 64 µg/mL	64 µg/mL (≈ 116 µM)	>1280 µg/mL	> 128 µg/mL	128 µg/mL (≈ 232 µM)	8 µg/mL (≈ 14.5 µM)	64 µg/mL (≈ 116 µM)	> 128 µg/mL	128 µg/mL (≈ 232 µM)	> 128 µg/mL	> 128 µg/mL	64 µg/mL (≈ 116 µM)	> 128 µg/mL	> 128 µg/mL	–
CC(=O)c1ccc2c(c1OCCCN(C)CC(C)(C)CN(C)C)C=CC(C)(CCC=C(C)C)O2 (stereo not shown) [Compound 5g, 1-(5-(3-((3-(Dimethylamino)-2,2-dimethylpropyl)(methyl)amino)propoxy)-2-methyl-2-(4-methylpent-3-en-1-yl)-2H-chromen-6-yl)ethan-1-one]	–	–	8 µg/mL (≈ 17 µM)	183.1 µg/mL	8 µg/mL (≈ 17 µM)	8 µg/mL (≈ 17 µM)	8 µg/mL (≈ 17 µM)	8 µg/mL (≈ 17 µM)	16 µg/mL (≈ 34 µM)	4 µg/mL (≈ 8.5 µM)	4 µg/mL (≈ 8.5 µM)	128 µg/mL (≈ 272 µM)	8 µg/mL (≈ 17 µM)	16 µg/mL (≈ 34 µM)	32 µg/mL (≈ 68 µM)	8 µg/mL (≈ 17 µM)
CC(=O)c1ccc2c(c1OCCCNCCCN1CCCC1)C=CC(C)(CCC=C(C)C)O2 (stereo not shown) [Compound 5h]	–	–	8 µg/mL (≈ 17.6 µM)	84.7 µg/mL	4 µg/mL (≈ 8.8 µM)	8 µg/mL (≈ 17.6 µM)	8 µg/mL (≈ 17.6 µM)	8 µg/mL (≈ 17.6 µM)	8 µg/mL (≈ 17.6 µM)	4 µg/mL (≈ 8.8 µM)	8 µg/mL (≈ 17.6 µM)	16 µg/mL (≈ 35.2 µM)	8 µg/mL (≈ 17.6 µM)	32 µg/mL (≈ 70.4 µM)	32 µg/mL (≈ 70.4 µM)	8 µg/mL (≈ 17.6 µM)
CC[N+](CC)(CC)CCCOc1c(C(C)=O)ccc2c1C=CC(C)(CCC=C(C)C)O2 (stereo not shown) [Compound 5a, 3-((6-Acetyl-2-methyl-2-(4-methylpent-3-en-1-yl)-2H-chromen-5-yl)oxy)-N,N,N-triethylpropan-1-aminium]	–	–	64 µg/mL	571.5 µg/mL	> 128 µg/mL	128 µg/mL	8 µg/mL	64 µg/mL	> 128 µg/mL	64 µg/mL	128 µg/mL	> 128 µg/mL	64 µg/mL	16 µg/mL	16 µg/mL	8 to 128 µg/mL
CC[N+](CC)(CC)CCCOc1c2c(c3c(c1C(C)=O)OC(C)(CCC=C(C)C)C=C3)OC(C)(CCC=C(C)C)C=C2 (stereo not shown) [Compound 9a, 3-((6-Acetyl-2,8-dimethyl-2,8-bis(4-methylpent-3-en-1-yl)-2H,8H-pyrano[2,3-f]chromen-5-yl)oxy)-N,N,N-triethylpropan-1-aminium]	–	–	4 µg/mL	40.4 µg/mL	128 µg/mL	4 µg/mL	2 µg/mL	4 µg/mL	> 128 µg/mL	2 µg/mL	> 128 µg/mL	> 128 µg/mL	1 µg/mL	4 µg/mL	4 µg/mL	2 to 4 µg/mL
